Measurements taken from patent USRE39148E1, “Potentiation of the Microbicide 2-(Thiocyanomethylthio)benzothiazole using an n-alkyl heterocyclic compound” (Buckman Laboratories International, Inc., priority 1995, dated 2006).

What was measured:
[1] = system: Sphaerotilus natans, ATCC 15291; assay: 18 Hour Stokes Broth Test; type: cell-based; settings: alone
Experimental: The bactericidal effects of the combined use of TCMTB and N-alkyl heterocyclic compounds against bacteria were measured using an 18 Hour Stokes Broth Test. Combinations of TCMTB and N-dodecyl morpho line (DDM) and of TCMTB and N-dodecyl imidazole (DDI) were tested against the bacteria Sphaerotilus natans, ATCC 15291. In this test, compound A was Busan® 1030 product, a 30% TCMTB formulation, and compound B was either DDM (99%) or DDI (99%). The Busan® […] product is available from Buckman Laboratories, Memphis, Tenn. The Stokes broth substrate used to evaluate effectiveness of microbicidal compositions against Sphaerotilus natans was prepared by adding the following to one liter of water: [table] The broth was adjusted to pH 7.0 with sodium hydroxide. Forty gram portions were then added to 180 mL Pyrex milk dilution bottles fitted with […] rubber stoppers and then sterilized. Each of the following substances was then added to each bottle in the order listed. • 1. Sterile distilled water as required in each individual case to bring the total weight of the contents of each bottle to 50 g after all subsequent additions specified below (including inoculation with the aqueous suspension of test organism) have been made. • 2. Solution of toxicant or control agent to be evaluated in such individual volumes as to give the concentration desired in parts per million by weight. • 3. One mL of a 24-hour old S. natans culture grown in Stokes broth. After the inoculant suspension of the test organism was added to the bottles they were incubated at 28° C. for 18 hours. After this incubation, a 1 mL of sample was withdrawn from each bottle, diluted, plated on Stokes agar, and incubated for 72-96 hr. at 28-30° C. Stokes agar was prepared like the broth with 12.5 g agar added per liter. The number of colonies on each plate was determined and converted to the count per milliliter of substrate. […] A percentage kill of 90 percent or higher represents an extremely useful bactericidal composition. […] Others may be calculated from the data presented.

[2] = system: Desulfovibrio desulfuricans, ATCC 7757; assay: 28 Day API Test; type: cell-based; parameters: key: 0=no growth; 4=heavy growth; settings: alone
Experimental: The bactericidal effects of the combined use of TCMTB and N-alkyl heterocyclic compounds against bacteria were measured using an 28 Day API Test. Combinations of TCMTB (compound A) and N-dodecyl morpholine (DDM, compound B) and of TCMTB (compound A) and N-dodecyl imidazole (DDI, compound B) were tested against the bateria Desulfovibrio desulfuricans, ATCC 7757. Busan® 1030 product, a 30% TCMTB formulation, DDM (99%), and DDI (99%) were used in this testing. The Busan® […] product is available from Buckman Laboratories, Memphis Tenn. The medium used was a modified API Broth having the following composition: […] The compounds were dissolved in 1.0 L of deionized water to form the medium. The pH of the medium was adjusted to a final pH of 6.9 with 1 N sodium hydroxide prior to sterilization. The medium was sterilized at 121° C. for 20 minutes and then allowed to cool to room temperature. The medium is then inoculated by adding 10 ml per liter of a 24-hr. broth culture of Desulfovibrio desulfuricans. From stock solutions of the chemicals to be tested, sufficient amounts of the compounds were added to 1 oz. glass bottles so that when a bottle was completely filled, the desired concentration of the chemical was present. The bottles were then completely filled with the inoculated API broth (10 mL innoculum per liter medium) in a manner such as to exclude all air and provide an anaerobic state. The bottles were capped tightly and inverted gently to mix the contents and, at the same time, to make sure no air bubbles were present. Incubation was carried out at 37° C. for 28 days. Growth was indicated by blackening of the culture medium, whereas those bottles having sufficient chemical to inhibit growth would remain clear. Observations of growth were made at the end of 7 days, 14 days, 21 days and 28 days. […] The minimum inhibitory concentration (MIC) was defined as the lowest concentration tested which gave no growth in the bottle (clear liquid). […] Others may be calculated from the data presented.

CCCCCCCCCCCCn1ccnc1 [Dodecyl Imidazole, N-dodecyl imidazole]
% Kill ([1]; Table 3, 1 ppm): 75.1% | CFU/mL ([1]; Table 3, 1 ppm): 1.26 × 10^6 CFU/mL | % Kill ([1]; Table 3, 2 ppm): 86.5% | CFU/mL ([1]; Table 3, 2 ppm): 6.80 × 10^5 CFU/mL | CFU/mL ([1]; Table 3, 5 ppm): <10^3 CFU/mL | CFU/mL ([1]; Table 3, 10 ppm): <10^3 CFU/mL | CFU/mL ([1]; Table 3, 20 ppm): <10^3 CFU/mL | CFU/mL ([1]; Table 3, 50 ppm): <10^3 CFU/mL | CFU/mL ([1]; Table 3, 100 ppm): <10^3 CFU/mL

CCCCCCCCCCCCN1CCOCC1 [Dodecyl Morpholine, N-dodecyl morpholine]
% Kill ([1]; Table 2, 1 ppm): 58.4% | CFU/mL ([1]; Table 2, 1 ppm): 1.58 × 10^6 CFU/mL | % Kill ([1]; Table 2, 2 ppm): 67.4% | CFU/mL ([1]; Table 2, 2 ppm): 1.24 × 10^6 CFU/mL | % Kill ([1]; Table 2, 5 ppm): 77.6% | CFU/mL ([1]; Table 2, 5 ppm): 8.51 × 10^5 CFU/mL | CFU/mL ([1]; Table 2, 10 ppm): <10^3 CFU/mL | CFU/mL ([1]; Table 2, 20 ppm): <10^3 CFU/mL | growth, Day 7 ([2]; Table 4, 10 ppm): 4 | growth, Day 14 ([2]; Table 4, 10 ppm): 4 | growth, Day 21 ([2]; Table 4, 10 ppm): 4 | growth, Day 28 ([2]; Table 4, 10 ppm): 4 | growth, Day 7 ([2]; Table 4, 20 ppm): 4 | growth, Day 14 ([2]; Table 4, 20 ppm): 4 | growth, Day 21 ([2]; Table 4, 20 ppm): 4 | growth, Day 28 ([2]; Table 4, 20 ppm): 4 | growth, Day 7 ([2]; Table 4, 40 ppm): 2 | growth, Day 14 ([2]; Table 4, 40 ppm): 3 | growth, Day 21 ([2]; Table 4, 40 ppm): 4 | growth, Day 28 ([2]; Table 4, 40 ppm): 4 | growth, Day 7 ([2]; Table 4, 80 ppm): 0 | growth, Day 14 ([2]; Table 4, 80 ppm): 1 | growth, Day 21 ([2]; Table 4, 80 ppm): 3 | growth, Day 28 ([2]; Table 4, 80 ppm): 4 | growth, Day 7 ([2]; Table 4, 160 ppm): 0 | growth, Day 14 ([2]; Table 4, 160 ppm): 0 | growth, Day 21 ([2]; Table 4, 160 ppm): 2 | growth, Day 28 ([2]; Table 4, 160 ppm): 3 | growth, Day 7 ([2]; Table 4, 320 ppm): 0 | growth, Day 14 ([2]; Table 4, 320 ppm): 0 | growth, Day 21 ([2]; Table 4, 320 ppm): 0 | growth, Day 28 ([2]; Table 4, 320 ppm): 0 | growth, Day 7 ([2]; Table 5, 1 ppm): 4 | growth, Day 14 ([2]; Table 5, 1 ppm): 4 | growth, Day 21 ([2]; Table 5, 1 ppm): 4 | growth, Day 28 ([2]; Table 5, 1 ppm): 4 | growth, Day 7 ([2]; Table 5, 2 ppm): 4 | growth, Day 14 ([2]; Table 5, 2 ppm): 4 | growth, Day 21 ([2]; Table 5, 2 ppm): 4 | growth, Day 28 ([2]; Table 5, 2 ppm): 4 | growth, Day 7 ([2]; Table 5, 4 ppm): 4 | growth, Day 14 ([2]; Table 5, 4 ppm): 4 | growth, Day 21 ([2]; Table 5, 4 ppm): 4 | growth, Day 28 ([2]; Table 5, 4 ppm): 4 | growth, Day 7 ([2]; Table 5, 8 ppm): 2 | growth, Day 14 ([2]; Table 5, 8 ppm): 4 | growth, Day 28 ([2]; Table 5, 8 ppm): 4 | growth, Day 7 ([2]; Table 5, 16 ppm): 0 | growth, Day 14 ([2]; Table 5, 16 ppm): 0 | growth, Day 21 ([2]; Table 5, 16 ppm): 0 | growth, Day 28 ([2]; Table 5, 16 ppm): 0 | growth, Day 7 ([2]; Table 5, 32 ppm): 0 | growth, Day 14 ([2]; Table 5, 32 ppm): 0 | growth, Day 28 ([2]; Table 5, 32 ppm): 0
